Reference: publication PMC6100537, “Exploration of the Fluorescent Properties and the Modulated Activities against Sirtuin Fluorogenic Assays of Chromenone-Derived Natural Products” (Molecules : A Journal of Synthetic Chemistry and Natural …, 2018)

How the values were obtained:
SIRT1 = molecular target: T1, SIRT1 (Homo sapiens, UniProt Q96EB6); assay: AMC-peptide fluorogenic deacetylase assay with recombinant SIRT1, activation at […], compound fluorescence background subtracted; assay type: biochemical
T1 construct: SIRT1 (part)
T1 sequence (Q96EB6 2-747): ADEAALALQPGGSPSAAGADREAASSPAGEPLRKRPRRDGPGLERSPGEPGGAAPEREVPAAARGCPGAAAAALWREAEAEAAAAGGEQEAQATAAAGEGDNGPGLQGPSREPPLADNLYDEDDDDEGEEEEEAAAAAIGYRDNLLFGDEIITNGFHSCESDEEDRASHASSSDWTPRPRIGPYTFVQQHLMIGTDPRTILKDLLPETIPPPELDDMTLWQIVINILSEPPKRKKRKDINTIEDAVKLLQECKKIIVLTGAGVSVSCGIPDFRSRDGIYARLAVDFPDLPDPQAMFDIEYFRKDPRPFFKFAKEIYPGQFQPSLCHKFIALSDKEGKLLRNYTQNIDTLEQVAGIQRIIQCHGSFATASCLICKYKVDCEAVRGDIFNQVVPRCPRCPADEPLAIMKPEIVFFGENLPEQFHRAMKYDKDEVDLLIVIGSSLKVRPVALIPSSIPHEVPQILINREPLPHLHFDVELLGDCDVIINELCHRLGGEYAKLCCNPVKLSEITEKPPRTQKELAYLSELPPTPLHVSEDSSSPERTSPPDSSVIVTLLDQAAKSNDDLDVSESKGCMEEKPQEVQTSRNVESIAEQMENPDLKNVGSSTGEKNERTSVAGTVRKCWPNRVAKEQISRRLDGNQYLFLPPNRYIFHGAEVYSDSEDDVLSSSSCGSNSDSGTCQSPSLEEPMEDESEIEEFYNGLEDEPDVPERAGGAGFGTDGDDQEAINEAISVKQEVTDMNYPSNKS

SIRT2 = molecular target: T2, SIRT2 (Homo sapiens, UniProt Q8IXJ6); assay: AMC-peptide fluorogenic deacetylase assay with recombinant SIRT2; Lineweaver-Burk kinetics; assay type: biochemical
T2 construct: SIRT2 (whole)
T2 sequence (Q8IXJ6 1-389): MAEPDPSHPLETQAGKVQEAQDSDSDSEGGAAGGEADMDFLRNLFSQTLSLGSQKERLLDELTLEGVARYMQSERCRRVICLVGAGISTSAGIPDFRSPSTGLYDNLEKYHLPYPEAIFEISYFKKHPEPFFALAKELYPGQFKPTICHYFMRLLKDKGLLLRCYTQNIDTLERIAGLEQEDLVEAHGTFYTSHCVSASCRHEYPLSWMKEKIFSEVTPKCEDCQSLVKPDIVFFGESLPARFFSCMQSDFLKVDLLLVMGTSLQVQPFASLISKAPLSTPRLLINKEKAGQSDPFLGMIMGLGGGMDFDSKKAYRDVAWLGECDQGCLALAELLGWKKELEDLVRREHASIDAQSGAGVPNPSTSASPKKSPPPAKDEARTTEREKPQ

With `Oc1ccc(/C=C/c2cc(O)cc(O)c2)cc1` [compound 1, resveratrol] the fold induction at 10 µM (SIRT1) was 11.6.
With `COc1ccc2ccc(=O)oc2c1CC=C(C)C` [compound 4, osthole] the IC50 (SIRT2) was 10 µM.
